# Test results reported in patent US7232570B2, “ERAAP modulators regulate immune responses” (Regents of the University of California, priority 2002, dated 2007).
# Tested on: Sprague-Dawley rats
# Experiment: Phenotypic and functional indicia of immunosuppression in treated rats
# Type: in vivo
# Conditions: e.g. influenza and lymphocytic coriomeningitis virus
smiles,measurement,value
CC(C)C[C@H](N)CS [leucinethiol],resistance to viral challenge,reduced
